Broadly, the melting point is the temperature of the solid-liquid transition.

Our source for the melting point values is a melting point compilation (Tetko et al.; mined from patent text by program, amines drawn as free bases though some values may be those of a salt).

Where only a bound is given, the exact number is not on record here.

On to `CCCc1c(OCCCOc2ccc(C(=O)CCl)c(OC)c2CCC)ccc2c1OC(C(=O)OC)CC2` (centres undefined), for which the melting point fell in the range of 47 to 49 °C. `CS(=O)(=O)c1ccc(-c2[nH]nc(C(CCCO[N+](=O)[O-])=NO)c2-c2ccc(C#N)cc2)cc1`: the melting point lay in the range of 146 to 147 °C.

`CN1N=C2C(=Cc3ccccc3)CN(C(=O)CCCl)CC2C1c1ccccc1` (centres undefined) displayed a melting point of 134 to 136 °C.

With `CCN1C(=O)c2cccc3c(S(C)(=O)=O)ccc1c23`, the melting point was in the range of 199 to 203 °C.

Take `O=S(=O)(c1ccccc1)N1CC2CCC(C1)O2`: the melting point is 166 to 168 °C.

Compound `Cc1cc(N2CCOCC2)c2cccc(OCc3c(Cl)ccc(-n4cccc4CNC(=O)C=Cc4ccc(C(=O)O)cc4)c3Cl)c2n1` yielded a melting point of 174 to 180 °C. The result for `CCOc1nn(-c2ccc(C(F)(F)F)cn2)cc1CCCOc1cccc(CCC(=O)O)c1` reads 88 to 89 °C; that for `CCCCSc1ccc(C(O)CNC2CCCCC2)cc1C` (centres undefined), 136 °C. As for `O=C(NCCc1cccc2ccc(OC3CCCCC3)cc12)C1CCC1`, the figure is 116 to 118 °C. `N=C(Nc1ccc(Cl)cc1)Nc1ncccc1Cc1ccccc1F`: the melting point was 175 to 176 °C. The compound `CCCc1c(OCc2cccc(CC(=O)O)c2)ccc(C(C)=O)c1O` gave a melting point of 156 to 158 °C.

`CS(=O)(=O)c1sccc1S(N)(=O)=O` returned a melting point of 242 to 244 °C.

In turn, `CC(=O)N1CCN=C1Nc1cc(C)nn1-c1ccccc1C` had a melting point of 160 to 161 °C. For the compound `COc1ccccc1N1CCN(CC(O)COc2ccccc2CN)CC1` (centres undefined), the melting point was in the range of 113 to 114 °C.

For the compound `CN1CCN(Cc2ccccc2-c2cc3c(Nc4ccc5[nH]ccc5c4)c(C#N)cnc3s2)CC1`, the melting point was in the range of 226 to 228 °C. The result for `CSc1cccc(-n2cnc(C(=O)O)c2)c1` reads 190 to 192 °C; that for `CC(=O)SCCC(=O)N1N=C(c2ccccc2)CC1C(=O)O` (centres undefined), 137 to 139 °C; that for `CSc1nc2ccc(Br)cc2c2nn(-c3ccc(C)cc3)c(=O)n12`, 213 °C.

The compound `COc1ccc(NC(=O)c2ccc(COc3ccc4c(c3)CCC(CCN3CCCCC3)C4)cc2)cc1OC` (centres undefined) registered a melting point of 178 to 180 °C. The result for `CCOC(=O)c1cc2nc(C)n(Cc3ccccc3)c2[nH]1` reads 193 °C. The compound `N=C(N)NCCCCOc1cccc2c1NC(=O)C(CC(=O)O)C2` (centres undefined) returned a melting point of 207 to 210 °C. As for `O=C(O)c1cn([C@@H]2C[C@@H]2F)c2c(Cl)c(N3CC4=C(CNC4)C3)c(F)cc2c1=O`, the figure is 221 to 223 °C; as for `CCOC(=O)c1ncn2c(C(F)(F)F)cc(-c3ccc(C(F)(F)F)cc3)nc12`, 243 °C; as for `CCc1cccc(-c2c(-c3ccc4nn(C)cc4c3)nsc2NC(=O)[C@@H]2C[C@H]2C)n1`, 159 °C. `CCOC(=O)C1COc2cc(-c3ccccc3)ccc2O1` (centres undefined) registered a melting point of 103 to 105 °C. As for `CCOc1nc(O)nn1CC`, the figure is 64 to 67 °C; as for `CCc1nc2ccccc2c(=O)o1`, 83.9 °C; as for `O=C1NC(=O)C(Cc2ccc(SCc3ccccc3)cc2)S1` (centres undefined), 102 to 103 °C.

`Nc1ccccc1OC1CCCCC1` displayed a melting point of 55 to 56 °C. `CCCn1c(=O)c2[nH]c(/C=C/c3cccc(Cl)c3)nc2n(CCC)c1=O` came in with a melting point of 259 °C. `Oc1ncc(-c2cccc(C(F)(F)F)c2)cn1`: the melting point was in the range of 283 to 285 °C. As to `CCCC(=O)Nc1n[nH]c2cc(Cl)c(-c3ccccc3)cc12`, the melting point stood at 235 °C. Consider `O=C(O)COc1cccc2c1CCC(n1nc(-c3c(-c4ccccc4)nn4ccccc34)ccc1=O)C2=O` (centres undefined), for which the melting point lay within 225 to 227 °C. As for `Cc1ccc2c(c1)C(=O)C[C@H]1CCN(C)C[C@H]21` (relative stereo), the figure is more than 250 °C; as for `COC(=O)C=Cc1ccc2c(ccn2S(=O)(=O)c2ccccc2)c1`, 134 to 136 °C; as for `CC(=O)C1=C(O)C(=C(C)Nc2ccc(OC(=O)NCc3ccccc3)cc2)C(=O)OC1=O`, 195 to 197 °C. With `CCCCc1nc2c(N)nc3ccccc3c2n1CCOCCN1CCCS1(=O)=O`, the melting point lay within 152 to 154 °C. With `CC/C=C\Cn1c(=S)sc2c(=O)[nH]c(N)nc21`, the melting point is more than 320 °C. As for `Brc1cnc(SCc2ccccc2)nc1SCc1ccccc1`, the figure is 66 to 67 °C; as for `Cc1ccc(S(=O)(=O)N2CC2CCOS(C)(=O)=O)cc1` (centres undefined), 78 to 80 °C. The result for `CC1CN(c2c(F)c(N)c3c(=O)c(C(=O)O)cn(C4CC4)c3c2F)CCN1` (centres undefined) reads 251 to 253 °C; that for `Cc1cccc(C)c1N(CC(=O)NCCC(=O)O)C(=O)c1ccc(Cl)cc1`, 154 to 156 °C; that for `CC#CCn1c(Oc2cc(C)cc(C)c2)c(C(C)C)c(=O)[nH]c1=O`, 158 to 160 °C.

In turn, `CCc1nc2c(C)c([N+](=O)[O-])c(C)nc2[nH]1` yielded a melting point of 146 to 149 °C. As for `COc1cc(NS(=O)(=O)c2cccs2)c2[nH]c(C3=NCCS3)cc2c1`, the figure is 188 to 189 °C.

`COc1ccc(N2CCN(c3ccc(S(=O)(=O)N[C@@H](Cc4ccccc4)C(=O)O)cc3)CC2)cc1`: the melting point lay within 203 to 205 °C. The result for `O=C(O)c1ccc(Cl)c(S(=O)(=O)NC2CCCCCCC2)c1` reads 134 °C.

For the compound `CCCS(=O)c1cccnc1S(=O)(=O)NC(C)(C)C` (centres undefined), the melting point was 138 to 140 °C. As for `Cc1c(OCc2ccccc2)c(=O)ccn1CCCCCC(=O)O`, the figure is 145 to 147 °C; as for `O=C(c1cc2cc3oc(=O)[nH]c3cc2o1)N1CCC(OCc2ccccc2)CC1`, 217 to 219 °C; as for `COc1cccc(-c2ccnc(Nc3cc(OC)c(OC)c(OC)c3)n2)c1`, 155 to 156 °C.

Regarding `CCCCC1N=CC(C=O)(Cc2ccc(C(=O)OC)c3ccccc23)N1` (centres undefined), the melting point lay in the range of 95.5 to 97 °C. In the case of `CCOC(=O)C1=C(N)NC(C)=C(C(=O)O)C1c1ccccc1-c1ccccc1` (centres undefined), the melting point came to 182 °C. The result for `O=c1[nH]c2ccccc2n1CCCN1CCC(n2c(=S)[nH]c3ccccc32)CC1` reads 248 °C; that for `CCC1(CCCCN2CCN(c3cccc(Cl)c3)CC2)C(=O)Nc2ccc(Cl)cc21` (centres undefined), 139 to 142 °C; that for `Nc1ccc(C(=O)Nc2ccc(Cl)nc2)cc1F`, 193 °C. `N=C(OCc1ccc(Cl)cc1)N1Cc2ccccc2-c2ccccc2C1`: the melting point was in the range of 103 to 105 °C. As for `COC(=O)c1ccc(Cc2cccc3ccc(NC(=O)CC4CCCC4)cc23)c(OC)c1`, the figure is 172 to 174 °C; as for `Cc1nc(N2CCN(Cc3ccc(OC(F)(F)F)cc3)C2=O)sc1C(=O)NC[C@H](O)c1ccccc1`, 149 to 151 °C. For the compound `O=c1cc2c(nn1-c1ccc(Cl)cc1)-c1cccc(Cl)c1SCC2`, the melting point lay in the range of 166 to 168 °C. As for `CCOC(=O)c1cnc2ccc3nc(Cl)sc3c2c1Cl`, the figure is 143 to 146 °C; as for `CCOC(=O)C(=O)Nc1ccc(C#N)c(C#N)c1`, 194 °C.

As for `COc1ccc2c(c1)CC(=O)NC2c1ccc(Cl)cc1` (centres undefined), the melting point was 200 to 201 °C. As for `CCCn1c(=O)c2[nH]c(-c3nn(CC(=O)Nc4ccc(Cl)cc4)c(C)c3Br)nc2n(CCC)c1=O`, the figure is 298 to 299 °C; as for `Nc1nc2c(ncn2OCC(O)CO)c(=O)[nH]1` (centres undefined), 252 to 253 °C; as for `COC(=O)C(C)(C)Nc1nc(Cl)ccc1[N+](=O)[O-]`, 96 to 97 °C.

For `Cc1cccc(C(=O)Nc2cccc3c2C(=O)N(C2CCC(=O)NC2=O)C3=O)c1` (centres undefined), the melting point lay within 234 to 236 °C. Compound `COc1ccc(C2=N[C@H](c3ccccc3)[C@@H](OC(=O)Nc3ccc(Cl)c(Cl)c3)CO2)cc1` (racemic) registered a melting point of 130 °C. As for `Clc1nc2cccccc-2n1`, the figure is 162 to 163 °C. For the compound `C[C@@H](NC(=O)c1c[nH]c2ncc(-c3nn(C)c4cc(F)ccc34)nc12)C1(C#N)CCCC1`, the melting point lay in the range of 300 to 315 °C. Take `COC(=O)NCc1cc(C(C)=NOCc2ccc(F)cc2)ccc1Cl`: the melting point was 101 to 103 °C.

Turning to `COC(=O)c1nc2n(c1C(=O)OC)-c1ccc(Cl)cc1C(c1ccccc1F)=NC2`, the melting point lay in the range of 206 to 207 °C.

Consider `C#CCN(Cc1cc2c(=O)n(C)c(CN3CCC(O)CC3)nc2cc1Cl)c1ccc(C(=O)OC(C)(C)C)cc1`, for which the melting point was in the range of 208 to 210 °C. As for `CNC(=O)c1cc(Oc2ccc(NC(=O)Nc3ccc4c(cnn4C)c3)c(F)c2)ccn1`, the figure is 231 to 234 °C; as for `O=C1Nc2cccc(Br)c2C(=O)N2CCC[C@@H]12`, 221 to 224 °C.

The compound `CCCc1nc(C=NNC(=S)SC)c[nH]1` displayed a melting point of 95 to 104 °C. `O=C(CCNC(=O)C(=Cc1ccccc1)CSC(=O)c1ccccc1)OCc1ccccc1` had a melting point of 60 °C. As for `Clc1ccc(C(Cn2ccnc2)SCCC=Cc2ccccc2)c(Cl)c1` (centres undefined), the figure is 111 to 113 °C. As for `C=CCOc1ccc2ccc(OCC(=O)OC)cc2c1`, the figure is 69 to 70 °C; as for `CCc1nc2c(N)nc3ccccc3c2n1CCCS(=O)(=O)N(C)C`, 209 to 211 °C; as for `N#Cc1ccc(NC(=S)NCc2ccncc2)cc1`, 169 °C.

`CC(=O)N(N)c1ccc(C(F)(F)F)cc1NC(=O)c1ccccc1` registered a melting point of 212 to 214 °C.

In turn, `CC(C)Oc1nc(N)nc2ccc(-c3ccc(F)cc3)nc12` yielded a melting point of 191 to 192 °C. In turn, `Cc1c(C)c2c(c(C)c1NC(=O)NCCCCO)C(c1ccc(C(C)C)cc1)CO2` (centres undefined) displayed a melting point of 145 to 146 °C. The compound `Oc1c(CC2CCCCC2)ccc2ccccc12` gave a melting point of 53 to 56 °C. As for `Cn1cc(C(=O)NCc2ccc(Cl)cc2)c(=O)c2cc(CN3CCOCC3)cc(C#CCF)c21`, the figure is 189 to 191 °C; as for `CCOC(=O)c1cnc(Nc2ccccc2O)[nH]c1=O`, 289 to 291 °C; as for `COc1ccc(S(=O)(=O)C(CC(=O)NO)Cc2ccccc2)cc1` (centres undefined), 118 to 120 °C. For `NC(=O)c1cnc2c([N+](=O)[O-])cccc2c1Cl`, the melting point is 277 to 279 °C.
